Experimental data: PMC8704432, “Isolation, Structure Determination of Sesquiterpenes from Neurolaena lobata and Their Antiproliferative, Cell Cycle Arrest-Inducing and Anti-Invasive Properties against Human Cervical Tumor Cells” (Pharmaceutics, 2021)
Read-outs that look alike come from different tables or passages of the source.

Experiments:
[1] = system: C33A (HPV negative) human cervical cell line; assay: Antiproliferative MTT assay, C33A; assay type: cell-based; conditions: for inhibition at 10 µM / inhibition at 30 µM: read-out: Growth Inhibition Values (%) ± SEM
Experimental: (§1) Antiproliferative effect of the isolated compounds were determined in vitro using SiHa (HPV 16+), HeLa (HPV 18+), C33A (HPV negative) human cervical cell lines, NIH-3T3 mouse embryonic and MRC-5 human fibroblast cells by means of MTT ([3-(4,5-dimethylthiazol-2-yl)-2,5-diphenyltetrazolium bromide]) assay. Briefly, a limited number of human cancer cells (5000/well for SiHa and HeLa cells, 10,000/well in case of C33A cells) were seeded onto a 96-well microplate and became attached to the bottom of the well overnight. On the second day of the procedure, the test substances were added in two concentrations (10.0 and 30.0 µM) in order to obtain preliminary data and then the compounds were applied in serial dilution (applied final concentrations were: 0.1, 0.3, 1.0, 3.0, 10.0, 30.0 µM). Further details of the experiment were described in ref. [30]. All in vitro experiments were carried out on two 96-well dishes with at least five parallel wells [31].

[2] = system: HeLa (HPV 18+) human cervical cell line; assay: Antiproliferative MTT assay, HeLa; assay type: cell-based; conditions: for inhibition at 10 µM / inhibition at 30 µM: read-out: Growth Inhibition Values (%) ± SEM; for IC50: read-out: Calculated IC50 Values (μM) [95% CI]
Experimental: as §1

[3] = system: SiHa (HPV 16+) human cervical cell line; assay: Antiproliferative MTT assay, SiHa; assay type: cell-based; conditions: for inhibition at 10 µM / inhibition at 30 µM: read-out: Growth Inhibition Values (%) ± SEM; for IC50: read-out: Calculated IC50 Values (μM) [95% CI]
Experimental: as §1

[4] = system: GLC4 human small cell lung carcinoma; design: method as in PMID 8657743; conditions: GLC4 cells; read-out: IC50 (cytotoxicity); cited from earlier work
[5] = system: COLO 320 human colorectal cancer cells; design: method as in PMID 8657743; conditions: COLO 320 cells; read-out: IC50 (cytotoxicity); cited from earlier work
[6] = system: NIH/3T3 (mouse embryonic fibroblast); assay: Antiproliferative MTT assay, NIH/3T3; assay type: cell-based
Experimental: as §1

[7] = system: MRC-5 (human fibroblast); assay: Antiproliferative MTT assay, MRC-5; assay type: cell-based
Experimental: as §1

[8] = Homo sapiens, C-33-A, read-out: Calculated IC50 Values (μM) [95% CI], C33A, MTT
[9] = Mus musculus, NIH3T3, read-out: Growth Inhibition Values (%) ± SEM
[10] = Homo sapiens, MRC5, read-out: Growth Inhibition Values (%) ± SEM
[11] = NIH/3T3, MTT, read-out: Calculated IC50 Values (μM) [95% CI]
[12] = Mus musculus, NIH3T3, NIH/3T3, MTT, read-out: Calculated IC50 Values (μM) [95% CI]
[13] = Mus musculus, NIH3T3, NIH/3T3, 10 μM, MTT, read-out: Growth Inhibition Values (%) ± SEM
[14] = Mus musculus, NIH3T3, NIH/3T3, 30 μM, MTT, read-out: Growth Inhibition Values (%) ± SEM
[15] = Homo sapiens, MRC5, MRC-5, MTT, read-out: Calculated IC50 Values (μM) [95% CI]
[16] = Homo sapiens, MRC5, MRC-5, 10 μM, MTT, read-out: Growth Inhibition Values (%) ± SEM
[17] = Homo sapiens, MRC5, MRC-5, 30 μM, MTT, read-out: Growth Inhibition Values (%) ± SEM

Compound	inhibition at 10 µM ([1]; Homo sapiens, C-33-A)	inhibition at 30 µM ([1]; Homo sapiens, C-33-A)	inhibition at 10 µM ([2]; Homo sapiens, 10 μM)	inhibition at 30 µM ([2]; Homo sapiens, 30 μM)	inhibition at 10 µM ([3]; Homo sapiens, 10 μM)	inhibition at 30 µM ([3]; Homo sapiens, 30 μM)	IC50 [1, 8]	IC50 ([2]; Homo sapiens)	IC50 ([3]; Homo sapiens)	further results
COC[C@@H]1C(=O)O[C@@H]2C[C@@H](C)C3=CC(=O)[C@](C)(O3)[C@H](O)[C@@H](OC(=O)CC(C)C)[C@@H]12 [Compound 2, Lobatolide A]	< 20%	36.6 ± 2.95%	< 20%	21.6 ± 2.42%	< 20%	< 20%	–	–	–	–
COC[C@H]1C(=O)O[C@@H]2C[C@@H](C)/C=C\C(=O)[C@](C)(O)[C@H](OC(C)=O)[C@@H](OC(=O)CC(C)C)[C@H]21 [Compound 5, Lobatolide B]	50.5 ± 3.49%	90 ± 1.4%	< 20%	63.9 ± 3.23%	< 20%	65.5 ± 2.52%	–	–	–	–
C=C1C(=O)O[C@@H]2/C=C(/C)C3=CC(=O)[C@](C)(O3)[C@H](O)[C@@H](OC(=O)CC(C)C)[C@@H]12 [Lobatin B]	–	–	–	–	–	–	–	–	–	IC50 [4]: 0.6 µM; IC50 [5]: 1.1 µM
CC(C)[C@@H]1CC[C@@]2(C)C(=O)CCC(CO)=C[C@@H]12 [Compound 10, (+)-aphanamol I]	< 20%	< 20%	< 20%	36.5 ± 1.55%	< 20%	< 20%	–	–	–	–
C=C1C(=O)O[C@@H]2/C=C(/C)C3=CC(=O)[C@](C)(O3)[C@H](OC(C)=O)[C@@H](OC(=O)CC(C)C)[C@@H]12 [Compound 4, Lobatin C]	97.27 ± 0.18%	97.19 ± 0.41%	83.9 ± 1.8%	90.1 ± 1.03%	79.8 ± 1.47%	94.62 ± 0.27%	2.05 µM	5.1 µM	2.22 µM	–
C=C1C(=O)O[C@@H]2[C@@H](CC3=C4[C@@H](C[C@@H](C)/C=C\C(=O)[C@](C)(O)[C@H](OC(C)=O)[C@H]4OC(=O)CC(C)C)OC3=O)[C@@H](C)C3=CC(=O)[C@](C)(O3)[C@H](O)[C@@H](OC(=O)CC(C)C)[C@@H]12 [Compound 7, Lobatolide D]	94.66 ± 0.19%	95.18 ± 0.31%	91.87 ± 0.72%	96.44 ± 0.1%	77.2 ± 1.04%	93.5 ± 0.42%	6.62 µM	6 µM	6.02 µM	IC50 ([6]; Mus musculus, NIH3T3, read-out: Calculated IC50 Values (μM) [95% CI]): 5.68 µM; inhibition at 10 µM [6, 9]: 90.7 ± 1.2%; inhibition at 30 µM [6, 9]: 98.06 ± 0.19%; IC50 ([7]; Homo sapiens, MRC5, read-out: Calculated IC50 Values (μM) [95% CI]): 15.4 µM; inhibition at 10 µM [7, 10]: < 20%; inhibition at 30 µM [7, 10]: 97.63 ± 0.27%
N.N.[Cl][Pt][Cl] [Cispl., cisplatin, reference compound]	–	–	–	–	–	–	–	–	–	Growth Inhibition Values (%) ± SEM ([1]; C33A, 10 μM, MTT): 77.17 ± 1.21%; Growth Inhibition Values (%) ± SEM ([1]; C33A, 30 μM, MTT): 97.50 ± 0.13%; IC50 ([1]; C33A, MTT, read-out: Calculated IC50 Values (μM) [95% CI]): 5.85 µM; Growth Inhibition Values (%) ± SEM ([6]; NIH/3T3, 10 μM, MTT): 73.88 ± 0.46%; Growth Inhibition Values (%) ± SEM ([6]; NIH/3T3, 30 μM, MTT): 97.10 ± 0.15%; IC50 [6, 11]: 5.5 µM; Growth Inhibition Values (%) ± SEM ([2]; 10 μM): 32.23 ± 1.16%; Growth Inhibition Values (%) ± SEM ([2]; 30 μM): 93.70 ± 0.82%; IC50 [2]: 12.1 µM; Growth Inhibition Values (%) ± SEM ([7]; MRC-5, 30 μM, MTT): 70.65 ± 1.34%; IC50 ([7]; MRC-5, MTT, read-out: Calculated IC50 Values (μM) [95% CI]): 5.77 µM; Growth Inhibition Values (%) ± SEM ([3]; 10 μM): 60.98 ± 0.92%; Growth Inhibition Values (%) ± SEM ([3]; 30 μM): 88.95 ± 0.53%; IC50 [3]: 4.29 µM
C=C1C(=O)O[C@@H]2C[C@@H](C)C3=CC(=O)[C@](C)(O3)[C@H](OC(=O)CC(C)C)[C@@H](O)[C@@H]12 [Compound 1, 8β-Hydroxy-9α-isovaleroyloxycalyculatolide]	90 ± 2.54%	91.79 ± 0.22%	20.4 ± 0.62%	81.8 ± 1.7%	77.93 ± 0.56%	92.1 ± 0.73%	5.89 µM	16.8 µM	4.86 µM	–
C=C1C(=O)O[C@@H]2C[C@@H](C)/C=C\C(=O)[C@@](C)(O)[C@H](OC(C)=O)[C@@H](OC(=O)CC(C)C)[C@@H]12 [Neu B, neurolenin B, reference compound]	98.29 ± 0.03%	97.91 ± 0.15%	94 ± 0.59%	94.81 ± 0.37%	88.73 ± 0.36%	93.42 ± 0.33%	–	< 1.4 µM	< 1.4 µM	IC50 ([1]; read-out: Calculated IC50 Values (μM) [95% CI], C33A, MTT): < 1.4 µM; IC50 [6, 12]: < 1.4 µM; inhibition at 10 µM [6, 13]: 98.11 ± 0.09%; inhibition at 30 µM [6, 14]: 98.02 ± 0.05%; IC50 [6, 11]: 1.31 µM; IC50 [4]: 1.1 µM; IC50 [2]: 1.24 µM; IC50 [5]: 1.2 µM; IC50 [7, 15]: 5.18 µM; inhibition at 10 µM [7, 16]: 94.26 ± 0.23%; inhibition at 30 µM [7, 17]: 97.46 ± 0.21%; IC50 [3]: 1.33 µM
C=C1CC[C@@H](O)[C@]2(C)CC[C@@H](C(C)C)[C@H](O)[C@@H]12 [Compound 9, Volenol]	< 20%	26.7 ± 2.73%	< 20%	37.3 ± 2.65%	< 20%	35.7 ± 1.29%	–	–	–	–
C=C1C(=O)O[C@@H]2/C=C(/C)C3=CC(=O)[C@](C)(O3)[C@H](OC(=O)CC(C)C)[C@@H](O)[C@@H]12 [Compound 3, 8β-hydroxy-9α-isovaleroyloxyatripliciolide]	79.2 ± 3.33%	94.46 ± 0.21%	91.42 ± 0.34%	96.6 ± 1.17%	60.6 ± 1.58%	78.8 ± 1.23%	6.82 µM	4.76 µM	7.81 µM	IC50 [6, 12]: 4.12 µM; inhibition at 10 µM [6, 13]: 92.96 ± 0.56%; inhibition at 30 µM [6, 14]: 98.15 ± 0.13%; IC50 [7, 15]: 6.67 µM; inhibition at 10 µM [7, 16]: 88.1 ± 1.22%; inhibition at 30 µM [7, 17]: 97.58 ± 0.1%
